US6451850B1, “Bio-chemical germanium complexes with high therapeutic efficiency and wide application spectrum” (priority 2001, dated 2002)
Several values for one entry are separate records, joined by “and”; a condition that tells them apart may be missing. Equal values may be shown once. Read-outs that look alike come from different tables or passages of the source.

How the values were obtained:
[1] = Antiinflammatory effect, formalin paw edema (method by Ju. Strel'nikov); assay type: in vivo; settings: white mice, into the stomach, dose equimolecular to 20 mg/kg of indometacin, two hours before formalin
Source text: Strel'nikov. […] Simultaneously antiinflammatory activity of indometacin was studied for comparison.

[2] = test system: virus of herpes simplex (VHS) of the 2-nd antigenic type; assay: Experimental herpes genitalis of male guinea pigs, treatment with Virolex or its OGC complex; assay type: in vivo; settings: for Duration of the Disease: treatment begun 48 hours after infecting
Source text: VIRUSES. The virus of herpes simplex (VHS) of the 2-nd antigenic type was implied in this work. Clinical symptoms of experimental herpes genitalis were registered daily before carrying out of treatment and were followed during the course of the disease.
The following parameters were used as criteria of infectious process danger: square and specific damage rate—presence of an edema, hyperemia, orchitis. Maximum distinction of each symptom made up 4 points. The present symptoms allow to buildup a scale and to express the course of the disease for each group under investigation from beginning of appearance of the first symptoms of the disease up to full disappearance of these. In this case index of therapeutic effect (ITE) is expressed with the following formula: [formula]
Treatment was began 48 hours after infecting when symptoms of the disease were distinct enough.
The first group included animals infected with VHS-2 and not subjected to treatment with any medicament.
The second group included animals infected with VHS-2 and subjected to treatment with 5 mg of Virolex once a day.
The third group included animals infected with VHS-2 and subjected to treatment with 5 mg of Virolex complex with OGC once a day.

[3] = guinea pigs infected with VHS-2, 5 mg once a day

SMILES	Expansion of Effect Spectrum for the Complex Medicament (Table 4)	Expansion of Effect Spectrum for the Complex Medicament (Table 5)	also measured
C[CH2][Ge]12[O]CCN(CC[O]1)CC(=O)[O]2.O=c1[nH]c(=O)n([C@H]2C[C@H](O)[C@@H](CO)O2)cc1I [Idoxuridine OGC (R = C2H5, R1,R2 = O)]	- . -	–	–
O=c1[nH]c(=O)n(C2CC(O)C(CO)O2)cc1I.[OH][Ge]12[O]CCN(CC[O]1)CC[O]2 (centres unmarked) [Idoxuridine OGC (R = OH)]	- . -	–	–
O=c1[nH]c(=O)n([C@H]2C[C@H](O)[C@@H](CO)O2)cc1I.[SH][Ge]12[O]CCN(CC[O]1)CC[O]2 [Idoxuridine OGC (R = SH)]	- . -	–	–
COc1ccc2c(c1)c(CC(=O)O)c(C)n2C(=O)c1ccc(Cl)cc1 [Indometacin]	–	–	reduction of the edema compared to the control group [1]: 33.4%
N[C@@H](Cc1ccc(O)c(O)c1)C(=O)O.[OH][Ge]12[O]CCN(CC[O]1)CC[O]2 [Levodopa OGC (R = OH)]	–	- . -	–
CN1CCN(CCCN2c3ccccc3Sc3ccc(Cl)cc32)CC1.[OH][Ge]12[O]CCN(CC[O]1)CC[O]2 [Meterazinum OGC (R = OH)]	–	- . -	–
CN1CCN(CCCN2c3ccccc3Sc3ccc(Cl)cc32)CC1.[SH][Ge]12[O]CCN(CC[O]1)CC[O]2 [Meterazinum OGC (R = SH)]	–	- . -	–
CN1CCN=C(c2ccccc2)c2cc(Cl)ccc21.[CH3][Ge]12[O]CCN(CC(=O)[O]1)CC(=O)[O]2 [Mezapamun OGC (R = CH3) R1R2 = R5R6 = O)]	–	- . -	–
CN1CCN=C(c2ccccc2)c2cc(Cl)ccc21.[CH3][Ge]([CH3])([CH3])[O][Ge]12[O]CCN(CC[O]1)CC[O]2 [Mezapamun OGC (R = OGeMe3)]	–	- . -	–
CN1CCN=C(c2ccccc2)c2cc(Cl)ccc21.[OH][Ge]12[O]CCN(CC[O]1)CC[O]2 [Mezapamun OGC (R = OH)]	–	- . -	–
CN1CCN=C(c2ccccc2)c2cc(Cl)ccc21.C[Si](C)(C)[O][Ge]12[O]CCN(CC[O]1)CC[O]2 [Mezapamun OGC (R = OSiMe3)]	–	- . -	–
CN1CCN=C(c2ccccc2)c2cc(Cl)ccc21.O=C1CN2CC[O][Ge]([C]34CC5CC(CC(C5)C3)C4)([O]CC2)[O]1 [Mezapamun OGC (R = adamantyl, R1R2 = O)]	–	- . -	–
NC12CC3CC(CC(C3)C1)C2.[OH][Ge]12[O]CCN(CC[O]1)CC[O]2 [Midantanum OGC (R = OH)]	- . -	- . -	–
NC12CC3CC(CC(C3)C1)C2.[SH][Ge]12[O]CCN(CC[O]1)CC[O]2 [Midantanum OGC (R = SH)]	- . -	- . -	–
O=C1CN=C(c2ccccc2Cl)c2cc(Br)ccc2N1.[OH][Ge]12[O]CCN(CC[O]1)CC[O]2 [Phenazepamum OGC (R = OH)]	–	- . -	–
CCC1(c2ccccc2)C(=O)NC(=O)NC1=O.[SH][Ge]12[O]CCN(CC[O]1)CC[O]2 [Phenobarbitalum OGC(R = SH)]	–	- . -	–
CC(N)C12CC3CC(CC(C3)C1)C2.O=C1CN2CC[O][Ge]([OH])([O]CC2)[O]1 (centres unmarked) [Remantadinum OGC (R = OH, R1R2 = O)]	- . -	–	–
CC(N)C12CC3CC(CC(C3)C1)C2.[SH][Ge]12[O]CCN(CC[O]1)CC[O]2 (centres unmarked) [Remantadinum OGC (R = SH)]	- . -	–	–
Nc1ncnc2c1ncn2C1OC(CO)C(O)C1O.O=C1CN2CC[O][Ge]([OH])([O]CC2)[O]1 (centres unmarked) [Vidarabinum OGC (R = OH, R1,R2 = O)]	- . -	–	–
Nc1ncnc2c1ncn2C1OC(CO)C(O)C1O.[OH][Ge]12[O]CCN(CC[O]1)CC[O]2 (centres unmarked) [Vidarabinum OGC(R = OH)]	- . -	–	–
CC1CN2CC[O][Ge]([OH])([O]CC2)[O]1.Nc1ncnc2c1ncn2C1OC(CO)C(O)C1O (centres unmarked) [Vidarabinum OGC(R = OH, R1 = CH3)]	- . -	–	–
C[CH2][Ge]12[O]CCN(CC[O]1)CC(=O)[O]2.Nc1nc2c(ncn2COCCO)c(=O)[nH]1 [Virolex OGC (R = C2H5, R1, R2 = O)]	- . -	–	–
Nc1nc2c(ncn2COCCO)c(=O)[nH]1.[OH][Ge]12[O]CCN(CC[O]1)CC[O]2 [Virolex OGC (R = OH), complex of 1-hydroxy-1-germa-2,8,9-trioxy-5-azatricyclo[3.3.3.0^1,5]undecane with Virolex]	–	–	convalescent earlier than in the second group (Virolex) ([2]; 5 mg once a day): 4.9 days; day of convalescence after infecting ([2]; 5 mg once a day): sixth; Duration of the Disease [2, 3]: 6,2 ± 1,8 Days; toxic effect on infected animals compared to pure Virolex ([2]; infected guinea pigs): decreased its toxic effect
Nc1nc2c(ncn2COCCO)c(=O)[nH]1 [Virolex, reference compound]	–	–	Total Index of Symptoms Distinction [2, 3]: 21 Points and 31,0 Points; Duration of the Disease [2, 3]: 11,1 ± 2,01 Days; Index of Therapeutic Effect (ITE) ([2]; guinea pigs infected with VHS-2, 5 mg once a day, versus control group): 58%
Cc1cn([C@H]2C[C@H](N=[N+]=[N-])[C@@H](CO)O2)c(=O)[nH]c1=O.[CH3][Ge]([CH3])([CH3])[O][Ge]12[O]CCN(CC[O]1)CC[O]2 [Zidovudine OGC (R = OGeMe3)]	- . -	–	–
Cc1cn([C@H]2C[C@H](N=[N+]=[N-])[C@@H](CO)O2)c(=O)[nH]c1=O.[OH][Ge]12[O]CCN(CC[O]1)CC[O]2 [Zidovudine OGC (R = OH)]	- . -	–	–
C[Si](C)(C)[O][Ge]12[O]CCN(CC[O]1)CC[O]2.Cc1cn([C@H]2C[C@H](N=[N+]=[N-])[C@@H](CO)O2)c(=O)[nH]c1=O [Zidovudine OGC (R = OSiMe3)]	- . -	–	–
Cc1cn([C@H]2C[C@H](N=[N+]=[N-])[C@@H](CO)O2)c(=O)[nH]c1=O.[SH][Ge]12[O]CCN(CC[O]1)CC[O]2 [Zidovudine OGC (R = SH)]	- . -	–	–
